Test results published in patent US9562035B2, “Benzamide derivative useful as FASN inhibitors for the treatment of cancer” (Janssen Pharmaceutica NV, priority 2013, dated 2017).
pEC50: −log10 of the molar value.

Experiments:
Assay type in all cases: cell-based
[1] = tested on: LNCaP_Vancouver prostate cells; experiment: In Vitro LNCaP Vancouver Prostate Cell Proliferation Assay in Lipid Reduced Medium; conditions: lipid reduced serum, 96 h, read-out: Vancouver Cells pIC50 (converted)
Procedure: LNCaP_Vancouver prostate cells were obtained from the Vancouver Prostate Cancer Centre. Cells were maintained in RPMI-1640, 10% Fetal Calf Serum (FCS, Hyclone), 2 mM glutamine and 50 μg/ml Gentamicin.
For the proliferation experiment 1500 LNCaP_Vancouver cells per well were seeded in a 384-well black with clear bottom plate (costar 3712BC) in 40 μl RPMI-1640, 10% Lipid reduced serum (LRS, Hyclone), 50 μg/ml Gentamicin and 2 mM Glutamine and incubated at 37° C., 5% CO2. The next day 10 μl of test compound/DMSO diluted in medium was added (3E-5M, 1E-5M, 3E-6M, 1E-6M, 3E-7M, 1E-7M, 3E-8M, 1E-8M final concentration). Compounds were tested in duplicate. After 96 h incubation at 37° C., 5% CO2 25 μl ATP-glow mix was added. The plate was incubated for 30 min at 37° C. and luminescence was measured with the Envision.
(§1) pIC50 values were calculated as follows. Raw data generated by the instruments were normalized to % Controlmin values, which were calculated as: % Controlmin=100*(x−mLC)/(mHC−mLC),
(§2) where mLC and mHC are the means of the low control wells and high control wells on the plate, after manual exclusion of outliers. The relation between the % Controlmin values and concentration was fitted to a 4-parameter logistic curve using a non-linear least squares regression method to determine the pIC50 value. Outlying data points were excluded manually to get a correct fit. The pIC50 corresponds to −log 10(IC50), if the IC50 is expressed in molar units (http://www.ncbi.nlm.nih.gov/books/NBK91994). The IC50 parameter was always determined by non-linear regression, but one or more of the other parameters may have been held fixed on a relevant input value, such as 0 for the bottom values.
(§3) For dose response curves with FASN inhibitors in LNCaP_Vancouver or PC-3M-Luc_C6 cells the curves bottom out around 30 to 40% of the control value. A standard fit PL2, forcing the lower bound to this level was used.
(§4) Representative compounds of the present invention were tested according to the procedure as described in Biological Example 4a and 4b above, with results as listed in Table BIO-4, below.

[2] = tested on: PC-3M-Luc-C6 prostate cells; experiment: In Vitro PC-3M-Luc-C6 Prostate Cell Proliferation Assay in Lipid Reduced Medium; conditions: read-out: PC-3M-Luc-C6 Cells pIC50 (μM) (converted), lipid reduced serum, 96 h
Procedure: PC-3M-Luc-C6 prostate cells were obtained from Xenogen Corporation. Cells were maintained in MEM supplemented with 10% Fetal Calf Serum (FCS, Hyclone), 2 mM glutamine, 1 mM sodium pyruvate, 1% BME vitamins (available from for example, Sigma Aldrich), 0.1 mM non Essential Amino Acid and 50 μg/ml Gentamicin. The cells were passaged twice a week.
1000 PC-3M-Luc-C6 prostate cells (Xenogen) were seeded in a 384-well black with clear bottom plate (costar 3712BC) in 40 μl MEM, 10% LRS (Hyclo ne), 50 μg/ml Gentamicin, 2 mM Glutamine, 1 mM Sodium pyruvaat, 1% BME vitamins and 0.1 mM non Essential Amino Acid and incubated at 37° C., 5% CO2. The next day 10 μl test compound/DMSO diluted in medium was added (3E-5M, 1E-5M, 3E-6M, 1E-6M, 3E-7M, 1E-7M, 3E-8M, 1E-8M final concentration). Compounds were tested in duplicate. After 96 h incubation at 37° C., 5% CO2 25 μl ATP-glow mix was added. The plate was incubated for 30 min at 37° C. and luminescence was measured with the Envision.
as §1, §2, §3, §4

rgRSV224 virus = experiment: Antiviral Activity Against RSV (GFP expression in HeLa cells); conditions: human respiratory syncytial virus, 72 h, read-out: EC50 (RSV Antiviral Activity)
Procedure: Black 96-well clear-bottom microtiter plates (Corning, Amsterdam, The Netherlands) were filled in duplicate using a customized robot system with serial 4-fold dilutions of test compound in a final volume of 50 μl culture medium [RPMI medium without phenol red, 10% FBS, 0.04% gentamycin (50 mg/mL) and 0.5% DMSO]. Then, 100 μl of a HeLa cell suspension (5×10^4 cells/mL) in culture medium was added to each well followed by the addition of 50 μl rgRSV224 (MOI=0.02) virus in culture medium using a multidrop dispenser (Thermo Scientific, Erembodegem, Belgium). rgRSV224 virus is an engineered virus that includes an additional GFP gene (HALLAK, L. K., et. al., “Glycosaminoglycan sulfation requirements for respiratory syncytial virus infection.” J. Virol., 2000, pp 10508-10513, Vol. […]). Medium, virus- and mock-infected controls were included in each test. Cells were incubated at 37° C. in a 5% CO2 atmosphere. Three days post-virus exposure, viral replication was quantified by measuring GFP expression in the cells by a MSM laser microscope (Tibotec, Beerse, Belgium). […] In parallel, test compounds were incubated for three days in a set of white 96-well microtitier plates (Corning) and the cytotoxicity of compounds in HeLa cells was determined by measuring the ATP content of the cells using the ATPlite kit (PerkinElmer, Zaventem, Belgium) according to the manufacturer's instructions. […]

[3] = tested on: HCV 1b bicistronic subgenomic luciferase reporter replicon clone ET; experiment: Antiviral Activity Against HCV (replicon cells, luciferase read-out); conditions: Hepatitis C virus, 72 h; HCV 1b replicon clone ET, 3-day incubation, firefly luciferase read-out
Procedure: The anti-HCV activity of compounds was tested in cell culture with replicon cells generated using reagents from the Bartenschlager laboratory (the HCV 1b bicistronic subgenomic luciferase reporter replicon clone ET). The protocol included a 3-day incubation of 2500 replicon cells in a 384-well format in a nine-point 1:4 dilution series of the compound. Dose response curves were generated based on the firefly luciferase read-out.

HBV = experiment: Antiviral Activity Against HBV Replication (HBV DNA, HepG2.117 cell line); conditions: Hepatitis B virus, 72 h; HepG2.117 cells, 3 days, HBV DNA by realtime PCR
Procedure: (§5) The anti-HBV activity was measured using the HepG2.117 cell line, a stable, inducibly HBV producing cell line (SUN D., et al., “Stable HepG2- and Huh7-based human hepatoma cell lines for efficient regulated expression of infectious hepatitis B virus”, J. of Hepatology, 2006, pp 636-645, Vol. 45) which replicates HBV in the absence of doxycycline (Tet-off system). For the antiviral assay, HBV replication was induced, followed by a treatment with serially diluted compound in 96-well plates in duplicate. After 3 days of treatment, the antiviral activity was determined by quantification of intracellular or extracellular HBV DNA using realtime PCR and an HBV specific primer set and probe. Cytotoxicity of the test compounds was tested using HepG2 cells, incubated for 4 days in the presence of test compounds. The viability of the cells was assessed using a Resazurin assay. The CC50 was defined as the 50% concentration for cytotoxicity

[4] = Cytotoxicity in HepG2 cells (Resazurin assay); conditions: human, read-out: CC50 (Toxicity HepG2-4d)
Procedure: as §5

Cc1ccc(C(=O)N2CCC(c3ccc(-c4cnn(C)c4)cc3)CC2)cc1NC(=O)c1ccc(NC(C)C)nc1 [Compound #32, 6-(isopropylamino)-N-(2-methyl-5-(4-(4-(1-methyl-1H-pyrazol-4-yl)phenyl)piperidine-1-carbonyl)phenyl)nicotinamide]
IC50 [1]: 0.0933 µM
IC50 [2]: 0.01 µM
pEC50 (rgRSV224 virus): 7.75
pEC50 [3]: 7.84
pEC50 (HBV): < 5.30
CC50 at 4 days [4]: > 25 µM
